For this experiment, the target named is T1, F508del (Homo sapiens, UniProt P13569, DEL508-508).
T1 construct: expressed in transfected cells
As to the kind of experiment: Protocol 1: membrane potential optical assay (FLIPR III, voltage sensing dye), identification of potentiator compounds. It is filed as cell-based. The following applies: Table 3, compounds of Table 1. The method in brief: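 Read-out: change in voltage-sensing dye fluorescence (FLIPR III) as a measure of F508del conductance. Temperature-corrected (27° C, 24 hrs) NIH 3T3 cells expressing F508del are pretreated with potentiators, dye-loaded, then stimulated with forskolin under a chloride ion gradient using chloride-free gluconate bath.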

Structures are written as SMILES.

T1 sequence (P13569 with tags, fused parts or gaps DEL508-508): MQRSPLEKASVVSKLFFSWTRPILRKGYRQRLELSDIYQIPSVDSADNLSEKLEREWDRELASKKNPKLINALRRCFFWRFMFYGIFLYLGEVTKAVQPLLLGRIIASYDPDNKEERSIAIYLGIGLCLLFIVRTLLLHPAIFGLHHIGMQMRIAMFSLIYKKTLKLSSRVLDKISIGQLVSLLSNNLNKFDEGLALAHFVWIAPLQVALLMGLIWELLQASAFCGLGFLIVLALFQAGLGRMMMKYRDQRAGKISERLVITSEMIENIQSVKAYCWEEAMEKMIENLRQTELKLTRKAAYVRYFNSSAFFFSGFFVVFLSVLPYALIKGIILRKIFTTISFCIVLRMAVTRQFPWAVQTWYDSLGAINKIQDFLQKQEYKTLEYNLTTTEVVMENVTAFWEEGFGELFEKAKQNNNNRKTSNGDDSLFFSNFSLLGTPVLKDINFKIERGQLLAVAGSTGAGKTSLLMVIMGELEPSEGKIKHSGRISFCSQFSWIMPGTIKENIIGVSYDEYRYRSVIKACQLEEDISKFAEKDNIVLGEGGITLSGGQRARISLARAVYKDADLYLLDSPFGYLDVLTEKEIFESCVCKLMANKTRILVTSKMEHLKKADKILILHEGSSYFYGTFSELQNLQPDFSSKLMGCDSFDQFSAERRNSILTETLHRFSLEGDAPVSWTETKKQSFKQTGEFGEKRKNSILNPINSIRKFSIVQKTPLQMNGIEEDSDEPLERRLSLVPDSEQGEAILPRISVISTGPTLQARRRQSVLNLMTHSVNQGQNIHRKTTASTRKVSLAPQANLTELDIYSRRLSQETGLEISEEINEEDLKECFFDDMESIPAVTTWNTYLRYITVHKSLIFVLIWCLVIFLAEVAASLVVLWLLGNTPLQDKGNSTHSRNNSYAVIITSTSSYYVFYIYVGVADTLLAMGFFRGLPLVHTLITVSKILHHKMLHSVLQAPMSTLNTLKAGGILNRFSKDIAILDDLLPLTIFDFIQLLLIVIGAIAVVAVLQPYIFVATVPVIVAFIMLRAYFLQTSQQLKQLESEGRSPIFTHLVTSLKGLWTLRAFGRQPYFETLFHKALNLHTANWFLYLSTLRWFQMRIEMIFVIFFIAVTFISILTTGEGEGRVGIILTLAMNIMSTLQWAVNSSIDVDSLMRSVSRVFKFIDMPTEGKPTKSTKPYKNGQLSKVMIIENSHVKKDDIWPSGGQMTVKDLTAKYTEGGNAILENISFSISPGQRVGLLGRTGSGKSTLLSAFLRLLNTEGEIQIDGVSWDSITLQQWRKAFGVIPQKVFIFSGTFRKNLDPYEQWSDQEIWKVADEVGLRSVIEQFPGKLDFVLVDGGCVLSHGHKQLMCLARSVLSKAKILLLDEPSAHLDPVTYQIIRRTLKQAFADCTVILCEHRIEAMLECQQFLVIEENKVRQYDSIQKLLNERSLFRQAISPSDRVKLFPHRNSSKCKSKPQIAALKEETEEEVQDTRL

`CC(C)CN(C)c1ccc(-c2ccc(C(=O)NS(=O)(=O)c3cccc(N)n3)c(N3[C@H](C)CC[C@@H]3C)n2)cn1` [Compound 1506, N-[(6-amino-2-pyridyl)sulfonyl]-2-[(2S,5R)-2,5-dimethylpyrrolidin-1-yl]-6-[6-[isobutyl(methyl)amino]-3-pyridyl]pyridine-3-carboxamide]: the EC30 result is “+++ (“+++” means <3 uM)”. Regarding `CC(C)Oc1ccc(-c2ccc(C(=O)NS(=O)(=O)c3cccc(N)n3)c(N3CCC(C(C)(C)C)C3)n2)cn1` (centres unmarked) [Compound 1206, N-[(6-amino-2-pyridyl)sulfonyl]-2-(3-tert-butylpyrrolidin-1-yl)-6-(6-isopropoxy-3-pyridyl)pyridine-3-carboxamide], the EC30 result was “++ (“++” means between 3 uM and 10 uM)”.

Turning to `Cc1cc(C)c(Oc2nc(-c3ccc(CN4CCOCC4)cc3)ccc2C(=O)NS(=O)(=O)c2cccc(N)n2)c(C)c1` [Compound 810, N-[(6-amino-2-pyridyl)sulfonyl]-6-[4-(morpholinomethyl)phenyl]-2-(2,4,6-trimethylphenoxy)pyridine-3-carboxamide], the EC30 result was “++ (“++” means between 3 uM and 10 uM)”. Under `Cc1cc(C)c(Oc2nc(C3CC3)ccc2C(=O)NS(=O)(=O)c2cccc(N)n2)c(C)c1` [Compound 1050, N-[(6-amino-2-pyridyl)sulfonyl]-6-cyclopropyl-2-(2,4,6-trimethylphenoxy)pyridine-3-carboxamide] stands “++ (“++” means between 3 uM and 10 uM)”.

As for `COc1cc(C(C)(C)C)nc(Oc2c(C)cc(C)cc2C)c1C(=O)NS(=O)(=O)c1cccc(N)c1` [Compound 959, N-(3-aminophenyl)sulfonyl-6-tert-butyl-4-methoxy-2-(2,4,6-trimethylphenoxy)pyridine-3-carboxamide], the EC30 result is reported as “+++ (“+++” means <3 uM)”. The value for `CC(C)COc1cc(F)cc(-c2ccc(C(=O)NS(=O)(=O)c3cccc(N)n3)c(OCCC3CC3)n2)c1` [Compound 1685, N-[(6-amino-2-pyridyl)sulfonyl]-2-(2-cyclopropylethoxy)-6-(3-fluoro-5-isobutoxy-phenyl)pyridine-3-carboxamide] was “+++ (“+++” means <3 uM)”. As for `CC(C)Oc1ccc(-c2ccc(C(=O)NS(=O)(=O)c3cccc(N)n3)c(N3CCC(OCc4ccccc4)CC3)n2)cn1` [Compound 1012, N-[(6-amino-2-pyridyl)sulfonyl]-2-(4-benzyloxy-1-piperidyl)-6-(6-isopropoxy-3-pyridyl)pyridine-3-carboxamide], the EC30 result was “+++ (“+++” means <3 uM)”. For the compound `CCOc1cccc2c1CN(Cc1c(C)cc(C)cc1C)C2(C)C(=O)NS(=O)(=O)c1cccc(N)c1` (centres unmarked) [Compound 1454, N-(3-aminophenyl)sulfonyl-4-ethoxy-1-methyl-2-[(2,4,6-trimethylphenyl)methyl]isoindoline-1-carboxamide], the EC30 result was “+++ (“+++” means <3 uM)”. Under `CCOCCOCCOc1cc(-c2ccc(C(=O)NS(=O)(=O)c3cccc(N)n3)c(N3C[C@@H](C)CC3(C)C)n2)cc(C)n1` [Compound 1812, N-[(6-amino-2-pyridyl)sulfonyl]-6-[2-[2-(2-ethoxyethoxy)ethoxy]-6-methyl-4-pyridyl]-2-[(4S)-2,2,4-trimethylpyrrolidin-1-yl]pyridine-3-carboxamide] stands “++ (“++” means between 3 uM and 10 uM)”; under `C[C@@H]1CC[C@H](C)N1c1nc(-c2cc(F)cc(OCC3CCC3)c2)ccc1C(=O)NS(=O)(=O)c1ccc[nH]c1=O` [Compound 922, 6-[3-(cyclobutylmethoxy)-5-fluoro-phenyl]-2-[(2S,5R)-2,5-dimethylpyrrolidin-1-yl]-N-[(2-oxo-1H-pyridin-3-yl)sulfonyl]pyridine-3-carboxamide], “+++ (“+++” means <3 uM)”. Under `CC1CCC(Oc2cccc(S(=O)(=O)NC(=O)c3cccnc3N3CC(C)CC3(C)C)n2)C1` (centres unmarked) [Compound 1884, N—[[6-(3-methylcyclopentoxy)-2-pyridyl]sulfonyl]-2-(2,2,4-trimethylpyrrolidin-1-yl)pyridine-3-carboxamide] stands “+++ (“+++” means <3 uM)”.
